Bounds are passed on as bounds.

For the experiment, the target named is T1, Recombinant human HSD17B13 enzyme (Homo sapiens, UniProt Q7Z5P4).
T1 sequence (Q7Z5P4 20-300): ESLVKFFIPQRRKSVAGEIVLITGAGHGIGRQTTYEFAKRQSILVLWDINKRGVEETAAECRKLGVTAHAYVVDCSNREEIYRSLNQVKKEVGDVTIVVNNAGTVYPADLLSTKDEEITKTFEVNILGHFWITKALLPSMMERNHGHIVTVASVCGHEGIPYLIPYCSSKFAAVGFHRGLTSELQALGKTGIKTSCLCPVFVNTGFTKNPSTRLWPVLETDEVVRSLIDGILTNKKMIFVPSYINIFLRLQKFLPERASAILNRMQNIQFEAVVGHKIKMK
Briefly: HSD17b13 NAD(P)H-Glo biochemical assay. The conditions noted are these: 50 μM estradiol, 1 mM NAD+, 37° C. for 3 hours; read-out: HSD17β13 IC50. The essentials: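 Enzyme preincubated with inhibitor 20 min at RT in 20 mM Tris pH7.4, 0.002% Tween-20, 0.02% BSA, then reacted 3 h at 37° C with 50 μM estradiol and 1 mM NAD+ (final). NADH formation read by NAD(P)H-Glo luminescence after 1 h at RT.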
In the case of `Cn1nc(-c2cc(C(F)(F)F)c(F)c(O)c2F)c2cnc(N3CCOC[C@H]3Cc3ccc(F)cc3)nc21` [Compound 5.23, (R)-2,6-Difluoro-3-(6-(3-(4-fluorobenzyl)morpholino)-1-methyl-1H-pyrazolo[3,4-d]pyrimidin-3-yl)-5-(trifluoromethyl)phenol], the IC50 is at most 100 nM.

In the case of `Cn1nc(-c2cc(C(F)(F)F)c(F)c(O)c2F)c2cnc(N3CCOC[C@H]3Cc3cccc(F)c3)nc21` [Compound 5.24, (R)-2,6-Difluoro-3-(6-(3-(3-fluorobenzyl)morpholino)-1-methyl-1H-pyrazolo[3,4-d]pyrimidin-3-yl)-5-(trifluoromethyl)phenol], the IC50 was at most 100 nM. On to `Cn1nc(-c2cc(C(F)(F)F)c(F)c(O)c2F)c2cnc(N3CCOC[C@H]3Cc3ccccc3F)nc21` [Compound 5.25, (R)-2,6-Difluoro-3-(6-(3-(2-fluorobenzyl)morpholino)-1-methyl-1H-pyrazolo[3,4-d]pyrimidin-3-yl)-5-(trifluoromethyl)phenol], for which the concentration for half-maximal inhibition (IC50) was at most 100 nM. In the case of `CN1CCN(c2ncc3c(-c4cc(C(F)(F)F)c(F)c(O)c4F)nn(C)c3n2)[C@H](Cc2ccccc2)C1` [Compound 5.26, (R)-3-(6-(2-Benzyl-4-methylpiperazin-1-yl)-1-methyl-1H-pyrazolo[3,4-d]pyrimidin-3-yl)-2,6-difluoro-5-(trifluoromethyl)phenol] it was at most 100 nM; in that of `Cn1nc(-c2cc(C(F)(F)F)c(F)c(O)c2F)c2cnc(NC3(Cc4ccccc4)CCC3)nc21` [Compound 5.27, 3-(6-((1-Benzylcyclobutyl)amino)-1-methyl-1H-pyrazolo[3,4-d]pyrimidin-3-yl)-2,6-difluoro-5-(trifluoromethyl)phenol], at most 100 nM; in that of `COc1ccc(C[C@@H]2COCCN2c2ncc3c(-c4cc(C(F)(F)F)c(F)c(O)c4F)nn(C)c3n2)cc1` [Compound 5.28, (R)-2,6-Difluoro-3-(6-(3-(4-methoxybenzyl)morpholino)-1-methyl-1H-pyrazolo[3,4-d]pyrimidin-3-yl)-5-(trifluoromethyl)phenol], at most 100 nM. To `Cn1nc(-c2cc(C(F)(F)F)c(F)c(O)c2F)c2cnc(N3CCOCC3CN3CCCC3)nc21` (centres unmarked) [Compound 5.29, 2,6-Difluoro-3-(1-methyl-6-(3-(pyrrolidin-1-ylmethyl)morpholino)-1H-pyrazolo[3,4-d]pyrimidin-3-yl)-5-(trifluoromethyl)phenol] belongs 100 to 1000 nM; to `Cn1nc(-c2cc(C(F)(F)F)c(F)c(O)c2F)c2cnc(N3CCC[C@@H]3Cc3ccccc3)nc21` [Compound 5.30, (R)-3-(6-(2-Benzylpyrrolidin-1-yl)-1-methyl-1H-pyrazolo[3,4-d]pyrimidin-3-yl)-2,6-difluoro-5-(trifluoromethyl)phenol], at most 100 nM. To `Cn1nc(-c2cc(C(F)(F)F)c(F)c(O)c2F)c2cnc(N3CCNC[C@H]3Cc3ccccc3)nc21` [Compound 5.31, (R)-3-(6-(2-Benzylpiperazin-1-yl)-1-methyl-1H-pyrazolo[3,4-d]pyrimidin-3-yl)-2,6-difluoro-5-(trifluoromethyl)phenol] belongs at most 100 nM; to `Cn1nc(-c2cc(C(F)(F)F)c(F)c(O)c2F)c2cnc(N3CCCCC3Cc3ccccc3)nc21` (centres unmarked) [Compound 5.32, 3-(6-(2-Benzylpiperidin-1-yl)-1-methyl-1H-pyrazolo[3,4-d]pyrimidin-3-yl)-2,6-difluoro-5-(trifluoromethyl)phenol], at most 100 nM; to `Cn1nc(-c2cc(C(F)(F)F)c(F)c(O)c2F)c2cnc(N3CCN(S(C)(=O)=O)C(CC4CC4)C3)nc21` (centres unmarked) [Compound 5.33, 3-(6-(3-(Cyclopropylmethyl)-4-(methylsulfonyl)piperazin-1-yl)-1-methyl-1H-pyrazolo[3,4-d]pyrimidin-3-yl)-2,6-difluoro-5-(trifluoromethyl)phenol], at most 100 nM. As to `Cn1nc(-c2cc(C(F)(F)F)c(F)c(O)c2F)c2cnc(N3CCCCC3Cn3cncn3)nc21` (centres unmarked) [Compound 5.34, 3-(6-(2-((1H-1,2,4-Triazol-1-yl)methyl)piperidin-1-yl)-1-methyl-1H-pyrazolo[3,4-d]pyrimidin-3-yl)-2,6-difluoro-5-(trifluoromethyl)phenol], the IC50 fell in the range of 100 to 1000 nM. In the case of `CC(C)CC1COCCN1c1ncc2c(-c3cc(C(F)(F)F)c(F)c(O)c3F)nn(C)c2n1` (centres unmarked) [Compound 5.35, 2,6-Difluoro-3-(6-(3-isobutylmorpholino)-1-methyl-1H-pyrazolo[3,4-d]pyrimidin-3-yl)-5-(trifluoromethyl)phenol] it was at most 100 nM; in that of `CN(c1ncc2c(-c3cc(C(F)(F)F)c(F)c(O)c3F)nn(C)c2n1)C1CCCN(Cc2ccccc2)C1` (centres unmarked) [Compound 5.36, 3-(6-((1-Benzylpiperidin-3-yl)(methyl)amino)-1-methyl-1H-pyrazolo[3,4-d]pyrimidin-3-yl)-2,6-difluoro-5-(trifluoromethyl)phenol], at most 100 nM.

As to `Cn1nc(-c2cc(C(F)(F)F)c(F)c(O)c2F)c2cnc(N3CCN(S(C)(=O)=O)C(CC4CCC4)C3)nc21` (centres unmarked) [Compound 5.37, 3-(6-(3-(Cyclobutylmethyl)-4-(methylsulfonyl)piperazin-1-yl)-1-methyl-1H-pyrazolo[3,4-d]pyrimidin-3-yl)-2,6-difluoro-5-(trifluoromethyl)phenol], the 50% inhibitory concentration (IC50) is at most 100 nM.

`COC(=O)N1CCN(c2ncc3c(-c4cc(C(F)(F)F)c(F)c(O)c4F)nn(C)c3n2)[C@H](Cc2ccccc2)C1` [Compound 6, Methyl (R)-3-benzyl-4-(3-(2,4-difluoro-3-hydroxy-5-(trifluoromethyl)phenyl)-1-methyl-1H-pyrazolo[3,4-d]pyrimidin-6-yl)piperazine-1-carboxylate]: the IC50 is at most 100 nM. To `CN(C)C(=O)N1CCN(c2ncc3c(-c4cc(C(F)(F)F)c(F)c(O)c4F)nn(C)c3n2)[C@H](Cc2ccccc2)C1` [Compound 6.01, (R)-3-Benzyl-4-(3-(2,4-difluoro-3-hydroxy-5-(trifluoromethyl)phenyl)-1-methyl-1H-pyrazolo[3,4-d]pyrimidin-6-yl)-N,N-dimethylpiperazine-1-carboxamide] belongs at most 100 nM; to `CC(=O)N1CCN(c2ncc3c(-c4cc(C(F)(F)F)c(F)c(O)c4F)nn(C)c3n2)[C@H](Cc2ccccc2)C1` [Compound 6.02, (R)-1-(3-Benzyl-4-(3-(2,4-difluoro-3-hydroxy-5-(trifluoromethyl)phenyl)-1-methyl-1H-pyrazolo[3,4-d]pyrimidin-6-yl)piperazin-1-yl)ethan-1-one], at most 100 nM. For the compound `COCC(=O)N1CCN(c2ncc3c(-c4cc(C(F)(F)F)c(F)c(O)c4F)nn(C)c3n2)[C@H](Cc2ccccc2)C1` [Compound 6.03, (R)-1-(3-Benzyl-4-(3-(2,4-difluoro-3-hydroxy-5-(trifluoromethyl)phenyl)-1-methyl-1H-pyrazolo[3,4-d]pyrimidin-6-yl)piperazin-1-yl)-2-methoxyethan-1-one], the IC50 is at most 100 nM. In the case of `CC(=O)N1CCN(c2ncc3c(-c4cc(C(F)(F)F)c(F)c(O)c4F)nn(C)c3n2)C[C@@H]1Cc1ccccc1` [Compound 6.04, (S)-1-(2-Benzyl-4-(3-(2,4-difluoro-3-hydroxy-5-(trifluoromethyl)phenyl)-1-methyl-1H-pyrazolo[3,4-d]pyrimidin-6-yl)piperazin-1-yl)ethan-1-one] it was at most 100 nM; in that of `CC(=O)N1CCN(c2ncc3c(-c4cc(C(F)(F)F)c(F)c(O)c4F)nn(C)c3n2)C[C@H]1Cc1ccccc1` [Compound 6.05, (R)-1-(2-Benzyl-4-(3-(2,4-difluoro-3-hydroxy-5-(trifluoromethyl)phenyl)-1-methyl-1H-pyrazolo[3,4-d]pyrimidin-6-yl)piperazin-1-yl)ethan-1-one], at most 100 nM. `CNC(=O)N1CCN(c2ncc3c(-c4cc(C(F)(F)F)c(F)c(O)c4F)nn(C)c3n2)C[C@@H]1Cc1ccccc1` [Compound 6.06, (S)-2-Benzyl-4-(3-(2,4-difluoro-3-hydroxy-5-(trifluoromethyl)phenyl)-1-methyl-1H-pyrazolo[3,4-d]pyrimidin-6-yl)-N-methylpiperazine-1-carboxamide]: the IC50 was at most 100 nM.

As to `CN(C)C(=O)N1CCN(c2ncc3c(-c4cc(C(F)(F)F)c(F)c(O)c4F)nn(C)c3n2)C[C@@H]1Cc1ccccc1` [Compound 6.07, (S)-2-Benzyl-4-(3-(2,4-difluoro-3-hydroxy-5-(trifluoromethyl)phenyl)-1-methyl-1H-pyrazolo[3,4-d]pyrimidin-6-yl)-N,N-dimethylpiperazine-1-carboxamide], the IC50 lay in the range of 100 to 1000 nM.

Regarding `COC(=O)N1CCN(c2ncc3c(-c4cc(C(F)(F)F)c(F)c(O)c4F)nn(C)c3n2)C[C@@H]1Cc1ccccc1` [Compound 6.08, Methyl (S)-2-benzyl-4-(3-(2,4-difluoro-3-hydroxy-5-(trifluoromethyl)phenyl)-1-methyl-1H-pyrazolo[3,4-d]pyrimidin-6-yl)piperazine-1-carboxylate], the IC50 was at most 100 nM.

On to `CCC(=O)N1CCN(c2ncc3c(-c4cc(C(F)(F)F)c(F)c(O)c4F)nn(C)c3n2)[C@H](Cc2ccccc2)C1` [Compound 6.09, (R)-1-(3-Benzyl-4-(3-(2,4-difluoro-3-hydroxy-5-(trifluoromethyl)phenyl)-1-methyl-1H-pyrazolo[3,4-d]pyrimidin-6-yl)piperazin-1-yl)propan-1-one], for which the IC50 was at most 100 nM.

As to `CN(c1ncc2c(-c3cc(C(F)(F)F)c(F)c(O)c3F)nn(C)c2n1)C1(Cc2ccccc2)CCOCC1` [Compound 11.07, 3-(6-((4-Benzyltetrahydro-2H-pyran-4-yl)(methyl)amino)-1-methyl-1H-pyrazolo[3,4-d]pyrimidin-3-yl)-2,6-difluoro-5-(trifluoromethyl)phenol], the IC50 was at most 100 nM.
